# Measurements: patent US20210261512A1, “NOVEL COMPOUNDS” (INFLAZOME LIMITED, priority 2018, published 2021)
# Columns and labels:
# NLRP3 [1] = target: T1, NLRP3 (Homo sapiens, UniProt Q96P20); test: Human whole blood IL1β release assay; format: cell-based; settings: LPS 1 μg/ml, nigericin 10 μM, IL-1β AlphaLisa, 10 μM top dose (Example 2: top dose of 30 μM), read-out: HWB IC50
# How it was run: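 Healthy-donor heparinised human whole blood with 1 μg/ml LPS, compound (8-point half-log dilution, 10 μM top dose unless stated; 0.1% DMSO vehicle) for 3 h at 37 °C, then nigericin 10 μM final for 1 h. Supernatant IL-1β by AlphaLISA; IC50 from 4-parameter variable-slope fit.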
# [2] = PK, intravenous administration; format: in vivo; settings: rat, plasma, male Sprague Dawley rats, dose about 1 mg/kg; for Vd: read-out: Vdss
# How it was run: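 Male Sprague Dawley rats (6-9 weeks); IV dosing via tail vein as solution in DMSO:water or DMSO:PBS (10:90), oral dosing in 0.5% methylcellulose after overnight fasting. Plasma sampled at 8 time-points to 24 h; parameters derived from LC-MS/MS data.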
# NLRP3 [3] = target: T1, NLRP3; test: THP-1 cells pyroptosis assay; format: cell-based; parameters: Seed THP-1 cells (25,000 cells/well) containing 1.0 μg/ml LPS; host or cells: THP-1; settings: LPS 1.0 μg/ml, nigericin 5 μM, resazurin readout, 10 μM top dose (Example 2: top dose of 30 μM)
# How it was run: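 THP-1 cells (25,000/well) primed with 1 μg/ml LPS in serum-free RPMI, treated with compound (8-point dilution, 10 μM top unless stated; 0.1% DMSO) 3 h at 37°C, then nigericin 5 μM 1 h. Viability read by resazurin (100 μM, 1-2 h) fluorescence; IC50 from 4-parameter fit.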
# T1 sequence (Q96P20 whole entry): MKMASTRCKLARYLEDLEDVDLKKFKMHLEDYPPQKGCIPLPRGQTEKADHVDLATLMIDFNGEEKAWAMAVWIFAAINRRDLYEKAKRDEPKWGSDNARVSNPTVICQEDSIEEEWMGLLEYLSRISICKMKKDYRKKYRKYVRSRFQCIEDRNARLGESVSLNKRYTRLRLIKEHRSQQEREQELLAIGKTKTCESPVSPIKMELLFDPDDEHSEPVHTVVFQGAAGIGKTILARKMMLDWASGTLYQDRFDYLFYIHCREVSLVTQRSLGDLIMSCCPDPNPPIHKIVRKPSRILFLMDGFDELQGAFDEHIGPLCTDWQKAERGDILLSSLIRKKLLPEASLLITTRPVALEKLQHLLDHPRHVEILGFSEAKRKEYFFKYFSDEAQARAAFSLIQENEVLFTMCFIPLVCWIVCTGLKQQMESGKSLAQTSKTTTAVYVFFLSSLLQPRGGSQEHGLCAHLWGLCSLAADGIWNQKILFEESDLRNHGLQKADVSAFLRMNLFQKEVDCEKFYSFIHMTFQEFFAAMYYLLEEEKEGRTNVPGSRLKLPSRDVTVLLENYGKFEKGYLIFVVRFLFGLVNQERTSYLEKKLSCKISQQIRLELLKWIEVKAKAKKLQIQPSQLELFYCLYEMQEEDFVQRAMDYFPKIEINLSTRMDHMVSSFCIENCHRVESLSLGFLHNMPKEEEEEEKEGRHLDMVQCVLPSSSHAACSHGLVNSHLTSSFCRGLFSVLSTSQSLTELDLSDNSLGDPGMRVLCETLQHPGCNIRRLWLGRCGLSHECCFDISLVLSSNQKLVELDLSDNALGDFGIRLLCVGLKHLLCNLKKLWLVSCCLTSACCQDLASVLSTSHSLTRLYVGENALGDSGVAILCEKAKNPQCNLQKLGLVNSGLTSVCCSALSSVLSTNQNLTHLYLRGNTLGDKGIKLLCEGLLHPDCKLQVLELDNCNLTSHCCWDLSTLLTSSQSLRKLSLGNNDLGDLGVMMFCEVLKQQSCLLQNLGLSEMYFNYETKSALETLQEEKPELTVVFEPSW
Structure (SMILES),IC50 (NLRP3 [1]),AUC [2],clearance [2],half-life [2],Vd [2],IC50 (NLRP3 [3])
"CC(C)c1cc(F)cc(C(C)C)c1Nc1nnc(S(=O)(=O)N2CCC(N(C)C)CC2)[nH]1 [Example 303, 1-((5-((4-fluoro-2,6-diisopropylphenyl)amino)-1H-1,2,4-triazol-3-yl)sulfonyl)-N,N-dimethylpiperidin-4-amine]",≤ 5000 nM,200 ng·h/mL,80.7 mL/min/kg,2.45 h,11.5 L/kg,≤ 1000 nM
"CNC1CCN(S(=O)(=O)c2nnc(Nc3c4c(cc5c3CCC5)CCC4)[nH]2)CC1 [Example 130, 1-((5-((1,2,3,5,6,7-hexahydro-s-indacen-4-yl)amino)-4H-1,2,4-triazol-3-yl)sulfonyl)-N-methylpiperidin-4-amine]",≤ 5000 nM,509 ng·h/mL,32.8 mL/min/kg,7.8 h,10.6 L/kg,≤ 1000 nM
"COc1cc(-c2cc(F)cc(C(C)C)c2Nc2nnc(S(=O)(=O)c3ccccc3)[nH]2)ccn1 [Example 45, N-(4-fluoro-2-isopropyl-6-(2-methoxypyridin-4-yl)phenyl)-3-(phenylsulfonyl)-1H-1,2,4-triazol-5-amine]",≤ 5000 nM,545 ng·h/mL,30.6 mL/min/kg,1.2 h,1.59 L/kg,≤ 5000 nM
"COc1cc(-c2cc(F)cc(C(C)C)c2Cc2nnc(S(=O)(=O)N3CCC(CN(C)C)C3)[nH]2)ccn1 (stereo not drawn) [Example 156, 1-(1-((5-(4-fluoro-2-isopropyl-6-(2-methoxypyridin-4-yl)benzyl)-4H-1,2,4-triazol-3-yl)sulfonyl)pyrrolidin-3-yl)-N,N-dimethylmethanamine]",≤ 5000 nM,193 ng·h/mL,103 mL/min/kg,0.4 h,2.95 L/kg,≤ 1000 nM
"CCN(CC)CCCS(=O)(=O)c1nnc(Nc2c(-c3ccnc(OC)c3)cc(F)cc2C(C)C)[nH]1 [Example 79, 5-((3-(diethylamino)propyl)sulfonyl)-N-(4-fluoro-2-isopropyl-6-(2-methoxypyridin-4-yl)phenyl)-4H-1,2,4-triazol-3-amine]",≤ 5000 nM,277 ng·h/mL,60 mL/min/kg,2.57 h,5.03 L/kg,≤ 500 nM
"COc1cc(-c2cc(F)cc(C(C)C)c2Oc2nnc(S(=O)(=O)N3CCC4(CCN4C)CC3)[nH]2)ccn1 [Example 252, 7-((5-(4-fluoro-2-isopropyl-6-(2-methoxypyridin-4-yl)phenoxy)-4H-1,2,4-triazol-3-yl)sulfonyl)-1-methyl-1,7-diazaspiro[3.5]nonane]",≤ 5000 nM,362 ng·h/mL,51.1 mL/min/kg,0.426 h,0.82 L/kg,≤ 1000 nM
"CN(C)C1CCN(S(=O)(=O)c2nnc(Nc3c4c(c(Cl)c5c3CCC5)CCC4)[nH]2)CC1 [Example 300, 1-((5-((8-chloro-1,2,3,5,6,7-hexahydro-s-indacen-4-yl)amino)-1H-1,2,4-triazol-3-yl)sulfonyl)-N,N-dimethylpiperidin-4-amine]",≤ 5000 nM,235 ng·h/mL,70.8 mL/min/kg,2.65 h,10.6 L/kg,≤ 500 nM
"Cn1ccc(S(=O)(=O)c2nnc(Nc3c4c(cc5c3CCC5)CCC4)[nH]2)n1 [Example 176, N-(1,2,3,5,6,7-hexahydro-s-indacen-4-yl)-5-((1-methyl-1H-pyrazol-3-yl)sulfonyl)-4H-1,2,4-triazol-3-amine]",≤ 10000 nM,814 ng·h/mL,19.1 mL/min/kg,0.473 h,0.41 L/kg,≤ 1000 nM
"COc1cc(-c2cc(F)cc(C(C)C)c2Oc2nnc(S(=O)(=O)N3CC4(CCN(C)C4)C3)[nH]2)ccn1 [Example 250, 2-((5-(4-fluoro-2-isopropyl-6-(2-methoxypyridin-4-yl)phenoxy)-4H-1,2,4-triazol-3-yl)sulfonyl)-6-methyl-2,6-diazaspiro[3.4]octane]",≤ 5000 nM,392 ng·h/mL,55.2 mL/min/kg,0.26 h,0.6 L/kg,≤ 500 nM
"CNCCCS(=O)(=O)c1nnc(Nc2c3c(cc4c2CCC4)CCC3)[nH]1 [Example 54, N-(1,2,3,5,6,7-hexahydro-s-indacen-4-yl)-5-((3-(methylamino)propyl)sulfonyl)-4H-1,2,4-triazol-3-amine]",≤ 10000 nM,273 ng·h/mL,61.1 mL/min/kg,1.3 h,2.7 L/kg,≤ 1000 nM
"O=S(=O)(c1nnc(Nc2c3c(cc4c2CCC4)CCC3)[nH]1)N1CC2(CCN(C3CC3)C2)C1 [Example 245, 5-((6-cyclopropyl-2,6-diazaspiro[3.4]octan-2-yl)sulfonyl)-N-(1,2,3,5,6,7-hexahydro-s-indacen-4-yl)-4H-1,2,4-triazol-3-amine]",≤ 5000 nM,393 ng·h/mL,49.6 mL/min/kg,0.74 h,1.63 L/kg,≤ 500 nM

# Results, then the compound that gave them:
IC50 (NLRP3 [1]),AUC [2],clearance [2],half-life [2],Vd [2],IC50 (NLRP3 [3]),Structure (SMILES)
≤ 1000 nM,168 ng·h/mL,98.9 mL/min/kg,2.1 h,8.08 L/kg,≤ 500 nM,"O=S(=O)(CCCN1CCCC1)c1nnc(Nc2c3c(cc4c2CCC4)CCC3)[nH]1 [Example 49, N-(1,2,3,5,6,7-hexahydro-s-indacen-4-yl)-5-((3-(pyrrolidin-1-yl)propyl)sulfonyl)-4H-1,2,4-triazol-3-amine]"
≤ 500 nM,196 ng·h/mL,85 mL/min/kg,0.8 h,3.69 L/kg,≤ 500 nM,"CN(C)CCCS(=O)(=O)c1nnc(Nc2c3c(cc4c2CCC4)CCC3)[nH]1 [Example 48, 5-((3-(Dimethylamino)propyl)sulfonyl)-N-(1,2,3,5,6,7-hexahydro-s-indacen-4-yl)-4H-1,2,4-triazol-3-amine]"
≤ 500 nM,278 ng·h/mL,60 mL/min/kg,1.8 h,5.9 L/kg,≤ 500 nM,"CN1CCCC12CCN(S(=O)(=O)c1nnc(Nc3c4c(cc5c3CCC5)CCC4)[nH]1)CC2 [Example 278, N-(1,2,3,5,6,7-hexahydro-s-indacen-4-yl)-5-((1-methyl-1,8-diazaspiro[4.5]decan-8-yl)sulfonyl)-4H-1,2,4-triazol-3-amine]"
≤ 500 nM,58 ng·h/mL,121 mL/min/kg,0.52 h,2.86 L/kg,≤ 500 nM,"COc1cc(-c2ccc3c(c2Nc2nnc(S(=O)(=O)N4CC5(CCN(C)C5)C4)[nH]2)CCC3)ccn1 [Example 215, N-(5-(2-methoxypyridin-4-yl)-2,3-dihydro-1H-inden-4-yl)-5-((6-methyl-2,6-diazaspiro[3.4]octan-2-yl)sulfonyl)-4H-1,2,4-triazol-3-amine]"
≤ 1000 nM,173 ng·h/mL,96.5 mL/min/kg,0.8 h,5.26 L/kg,≤ 500 nM,"CCN(CC)CCCS(=O)(=O)c1nnc(Nc2c3c(cc4c2CCC4)CCC3)[nH]1 [Example 24, 5-((3-(diethylamino)propyl)sulfonyl)-N-(1,2,3,5,6,7-hexahydro-s-indacen-4-yl)-4H-1,2,4-triazol-3-amine]"
≤ 1000 nM,354 ng·h/mL,47.1 mL/min/kg,1.3 h,3.21 L/kg,≤ 1000 nM,"CN(C)CCNS(=O)(=O)c1nnc(Nc2c3c(cc4c2CCC4)CCC3)[nH]1 [Example 94, N-(2-(dimethylamino)ethyl)-5-((1,2,3,5,6,7-hexahydro-s-indacen-4-yl)amino)-4H-1,2,4-triazole-3-sulfonamide]"
≤ 1000 nM,278 ng·h/mL,59.9 mL/min/kg,1.5 h,4.61 L/kg,≤ 500 nM,"CCN(CC)CCNS(=O)(=O)c1nnc(Nc2c3c(cc4c2CCC4)CCC3)[nH]1 [Example 81, N-(2-(diethylamino)ethyl)-5-((1,2,3,5,6,7-hexahydro-s-indacen-4-yl)amino)-4H-1,2,4-triazole-3-sulfonamide]"
≤ 500 nM,216 ng·h/mL,76.1 mL/min/kg,0.19 h,0.88 L/kg,≤ 500 nM,"CN1CCC2(C1)CN(S(=O)(=O)c1nnc(Nc3c(-c4ccnc(OC(F)F)c4)ccc4c3CCO4)[nH]1)C2 [Example 212, N-(5-(2-(difluoromethoxy)pyridin-4-yl)-2,3-dihydrobenzofuran-4-yl)-5-((6-methyl-2,6-diazaspiro[3.4]octan-2-yl)sulfonyl)-4H-1,2,4-triazol-3-amine]"
≤ 1000 nM,224 ng·h/mL,72.3 mL/min/kg,2.18 h,6.41 L/kg,≤ 500 nM,"COc1cc(-c2c(C)cc3c(c2Nc2nnc(S(=O)(=O)N4CCC(N(C)C)CC4)[nH]2)CCC3)ccn1 [Example 216, 1-((5-((5-(2-methoxypyridin-4-yl)-6-methyl-2,3-dihydro-1H-inden-4-yl)amino)-4H-1,2,4-triazol-3-yl)sulfonyl)-N,N-dimethylpiperidin-4-amine]"
